pEC50: −log10 of the molar value. Read-outs that look alike come from different tables or passages of the source.
Assays:
B/Florida/04/2006 = test: Antiviral activity (drug efficacy evaluation by concentration) against B/Florida/04/2006; format: cell-based, B type influenza virus
[1] = tested on: A/California/07/2009 (H1N1); test: Antiviral activity (drug efficacy evaluation by concentration) against A/California/07/2009 (H1N1); format: cell-based, A type influenza virus; details: Influenza A virus
A/Perth/16/2009 (H3N2) = test: Antiviral activity (drug efficacy evaluation by concentration) against A/Perth/16/2009 (H3N2); format: cell-based, A type influenza virus; details: Influenza A virus
[2] = read-out: EC50 B/Florida/04/2006, B/Florida/04/2006
[3] = H1N1, A/California/07/2009 (H1N1), read-out: EC50 A/California/07/2009 (H1N1)
[4] = H3N2, A/Perth/16/2009 (H3N2), read-out: EC50 A/Perth/16/2009 (H3N2)
[5] = CC50 B/Florida/04/2006, cytotoxicity in the B/Florida/04/2006 assay
[6] = CC50, third EC50/CC50 column pair (c7), beside the EC50 of c6

Q: What does the source list for Cc1ccccc1CCc1nnc(Nc2ccc(F)c(Cl)c2)o1 [Compound 122, N-(3-chloro-4-fluorophenyl)-5-(2-methylphenethyl)-1,3,4-oxadiazol-2-amine]?
A: pEC50 (B/Florida/04/2006): < 4.30; pEC50 ([1]; H1N1, read-out: EC50): 4.43; pEC50 (A/Perth/16/2009 (H3N2); H3N2, read-out: EC50): 4.36; melting point: 87 °C; CC50 (in vitro; CC50, beside the EC50 of c2): > 50 µM; CC50 (in vitro; CC50, beside the EC50 of c4): > 50 µM

Q: Which results are given for Cc1ccccc1CSc1ccc(C(=O)n2nc(C)c(Br)c2C)o1 [Compound 48, (4-bromo-3,5-dimethyl-1H-pyrazol-1-yl)(5-((2-methylbenzyl)thio)furan-2-yl)methanone]?
A: pEC50 (B/Florida/04/2006; [2]): 4.63; pEC50 [1, 3]: 5.31; pEC50 (A/Perth/16/2009 (H3N2); [4]): 4.95; melting point: 101.2 °C; CC50 (in vitro; [5]): 9.54 µM

Q: Which results are given for Fc1ccc(/C=C/c2nnc(Cc3cccc(Br)c3)o2)c(Cl)c1 [Compound 178, (E)-2-(3-bromobenzyl)-5-(2-chloro-4-fluorostyryl)-1,3,4-oxadiazole]?
A: pEC50 (B/Florida/04/2006): 6.02; pEC50 ([1]; H1N1, read-out: EC50): 6.00; pEC50 (A/Perth/16/2009 (H3N2); H3N2, read-out: EC50): 6.12; melting point: 121.7 °C; CC50 (in vitro; CC50, beside the EC50 of c2): > 50 µM; CC50 (in vitro; CC50, beside the EC50 of c4): > 50 µM; CC50 (in vitro; [6]): > 50 µM

Q: With Brc1ccc(Cc2nnc(/C=C/c3ccccc3-c3ccccc3)o2)cc1 [Compound 126, (E)-2-(2-([1,1′-biphenyl]-2-yl)vinyl)-5-(4-bromobenzyl)-1,3,4-oxadiazole] as the compound, how does the pEC50 (B/Florida/04/2006) read?
A: The pEC50 was < 4.30.

Q: And the pEC50 ([1]; H1N1, read-out: EC50)?
A: Its pEC50 is 4.34.

Q: And the pEC50 (A/Perth/16/2009 (H3N2); H3N2, read-out: EC50)?
A: The pEC50 was < 4.30.

Q: What about the melting point of the same compound?
A: The melting point was 87.4 °C.

Q: What about the CC50 (in vitro; CC50, beside the EC50 of c2) of the same compound?
A: Its CC50 is > 50 µM.

Q: And the CC50 (in vitro; CC50, beside the EC50 of c4)?
A: The CC50 was > 50 µM.

Q: What about the CC50 (in vitro; [6]) of the same compound?
A: The CC50 was > 50 µM.

Q: Which results are given for Cc1cccc(C)c1Nc1nnc(C(O)c2ccc(F)c(Cl)c2)o1 (stereo not drawn) [Compound 79, (3-chloro-4-fluorophenyl)(5-((2,6-dimethylphenyl)amino)-1,3,4-oxadiazol-2-yl)methanol]?
A: pEC50 (B/Florida/04/2006; [2]): < 4.30; pEC50 [1, 3]: < 4.30; pEC50 (A/Perth/16/2009 (H3N2); [4]): < 4.30; melting point: 185.8 °C; CC50 (in vitro; [5]): > 50 µM

Q: Which results are given for Oc1ccccc1/C=C/c1nnc(Cc2ccc(Br)cc2)o1 [Compound 209, 2-(2-(5-(4-bromobenzyl)-1,3,4-oxadiazol-2-yl)vinyl)phenol]?
A: pEC50 (B/Florida/04/2006): < 4.30; pEC50 ([1]; H1N1, read-out: EC50): 4.33; pEC50 (A/Perth/16/2009 (H3N2); H3N2, read-out: EC50): 4.54; melting point: 168.3 °C; CC50 (in vitro; CC50, beside the EC50 of c2): > 50 µM; CC50 (in vitro; CC50, beside the EC50 of c4): > 50 µM; CC50 (in vitro; [6]): > 50 µM

Q: With Fc1ccc(/C=C/c2nnc(Nc3ccc(Br)cc3)o2)c(Cl)c1 [Compound 87, (E)-N-(4-bromophenyl)-5-(2-chloro-4-fluorostyryl)-1,3,4-oxadiazol-2-amine] as the compound, how does the pEC50 (B/Florida/04/2006) read?
A: Its pEC50 is 5.60.

Q: What about the pEC50 ([1]; H1N1, read-out: EC50) of the same compound?
A: The pEC50 was 5.56.

Q: What about the pEC50 (A/Perth/16/2009 (H3N2); H3N2, read-out: EC50) of the same compound?
A: The pEC50 was 5.71.

Q: And the melting point?
A: Its melting point is 218.7 °C.

Q: What about the CC50 (in vitro; CC50, beside the EC50 of c2) of the same compound?
A: Its CC50 is > 50 µM.

Q: And the CC50 (in vitro; CC50, beside the EC50 of c4)?
A: The CC50 was > 50 µM.

Q: And the CC50 (in vitro; [6])?
A: The CC50 was > 50 µM.

Q: What does the source list for Brc1ccc(Nc2nnc(SCc3ccccc3-c3ccccc3)o2)cc1 [Compound 52, 5-(([1,1′-biphenyl]-2-ylmethyl)thio)-N-(4-bromophenyl)-1,3,4-oxadiazol-2-amine]?
A: pEC50 (B/Florida/04/2006; [2]): 4.79; pEC50 [1, 3]: < 4.30; pEC50 (A/Perth/16/2009 (H3N2); [4]): 5.09; melting point: 158.2 °C; CC50 (in vitro; [5]): > 50 µM

Q: With COc1ccccc1CSc1nnc(Cn2nc(C)c(Br)c2C)o1 [Compound 10, 2-((4-bromo-3,5-dimethyl-1H-pyrazol-1-yl)methyl)-5-((2-methoxybenzyl)thio)-1,3,4-oxadiazole] as the compound, how does the pEC50 (B/Florida/04/2006; [2]) read?
A: The pEC50 was 4.81.

Q: What about the pEC50 [1, 3] of the same compound?
A: Its pEC50 is 4.78.

Q: And the pEC50 (A/Perth/16/2009 (H3N2); [4])?
A: Its pEC50 is 4.73.

Q: And the melting point?
A: Its melting point is 87.3 °C.

Q: And the CC50 (in vitro; [5])?
A: Its CC50 is > 50 µM.

Q: With Cc1nn(Cc2nnc(SCc3ccccc3-c3ccc(Cl)cc3)o2)c(C)c1Br [Compound 33, 2-((4-bromo-3,5-dimethyl-1H-pyrazol-1-yl)methyl)-5-(((4′-chloro-[1,1′-biphenyl]-2-yl)methyl)thio)-1,3,4-oxadiazole] as the compound, how does the pEC50 (B/Florida/04/2006; [2]) read?
A: Its pEC50 is 5.84.

Q: What about the pEC50 [1, 3] of the same compound?
A: Its pEC50 is 6.22.

Q: And the pEC50 (A/Perth/16/2009 (H3N2); [4])?
A: Its pEC50 is 6.30.

Q: And the melting point?
A: Its melting point is 84.7 °C.

Q: And the CC50 (in vitro; [5])?
A: Its CC50 is 6.28 µM.

Q: With Brc1ccc(Cc2nnc(/C=C/c3cccc4ccccc34)o2)cc1 [Compound 197, 2-(4-bromobenzyl)-5-(2-(naphthalen-1-yl)vinyl)-1,3,4-oxadiazole] as the compound, how does the pEC50 (B/Florida/04/2006) read?
A: The pEC50 was 4.36.

Q: And the pEC50 ([1]; H1N1, read-out: EC50)?
A: The pEC50 was 4.57.

Q: What about the pEC50 (A/Perth/16/2009 (H3N2); H3N2, read-out: EC50) of the same compound?
A: The pEC50 was 4.34.

Q: And the melting point?
A: The melting point was 116 °C.

Q: What about the CC50 (in vitro; CC50, beside the EC50 of c2) of the same compound?
A: The CC50 was > 50 µM.

Q: And the CC50 (in vitro; CC50, beside the EC50 of c4)?
A: The CC50 was > 50 µM.

Q: What about the CC50 (in vitro; [6]) of the same compound?
A: The CC50 was > 50 µM.

From patent US11149033B2, “Heteroaryl compound, enantiomer, diastereomer or pharmaceutically acceptable salt thereof, and antiviral composition containing same as active ingredient” (priority 2016, dated 2021)
